Experimental findings from patent US11951094B2, “TLR2 modulator compounds, pharmaceutical compositions and uses thereof” (Axial Therapeutics, Inc., priority 2020, dated 2024) are described below.

Counter-ions that a name gives are not always drawn.

TLR2, sequence (O60603 21-784): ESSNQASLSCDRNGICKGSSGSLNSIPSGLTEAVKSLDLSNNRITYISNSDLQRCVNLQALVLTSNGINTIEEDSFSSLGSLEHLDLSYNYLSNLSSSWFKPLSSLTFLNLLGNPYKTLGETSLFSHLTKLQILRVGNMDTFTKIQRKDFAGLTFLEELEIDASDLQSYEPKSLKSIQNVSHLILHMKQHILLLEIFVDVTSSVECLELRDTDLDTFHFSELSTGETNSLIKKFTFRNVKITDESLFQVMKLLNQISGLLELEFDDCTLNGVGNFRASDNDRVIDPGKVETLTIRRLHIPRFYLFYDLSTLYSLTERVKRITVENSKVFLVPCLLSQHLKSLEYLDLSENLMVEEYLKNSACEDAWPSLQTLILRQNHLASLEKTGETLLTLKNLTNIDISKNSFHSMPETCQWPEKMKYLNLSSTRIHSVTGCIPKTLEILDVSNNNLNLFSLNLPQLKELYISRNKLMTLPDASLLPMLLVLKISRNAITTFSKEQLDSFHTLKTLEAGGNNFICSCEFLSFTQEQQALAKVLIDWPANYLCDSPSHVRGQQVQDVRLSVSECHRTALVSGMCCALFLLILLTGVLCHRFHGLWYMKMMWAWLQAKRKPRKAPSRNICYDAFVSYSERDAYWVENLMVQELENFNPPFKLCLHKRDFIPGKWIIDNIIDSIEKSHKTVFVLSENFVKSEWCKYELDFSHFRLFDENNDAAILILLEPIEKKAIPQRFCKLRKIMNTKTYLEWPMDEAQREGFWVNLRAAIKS

One assay addresses TLR2 (Homo sapiens, UniProt O60603). Kind of assay: TLR2 agonist screening assay, HEK-Blue TLR2 reporter cell line (NF-kB-driven SEAP, absorbance at 600 nm). It counts as cell-based. On the set-up: host or cells: HEK-293 (HEK-Blue TLR2 reporter cell line). To be noted: HEK-Blue TLR2 reporter cells, agonist mode; average of all runs (Table 3). An excerpt:
TLRs are a class of cell-surface receptors expressed on many different cell types that recognize conserved structural motifs present on pathogen-derived molecules. TLR2 recognizes bacteria-derived lipopeptides. […] Provided herein is an assay to identify and characterize the binding affinities of novel TLR2 agonists.
The in vitro TLR2 assay consists of a cell line that responds to TLR2 engagement by producing a factor that elicits a color change in the culture media and can be readily measured by various colorimetric detection methods. This assay enables the identification of existing and novel compounds that engage TLR2 and, by virtue of compound dilution, to approximate the binding affinity of these compounds for eliciting a TLR2 signal.
The TLR2 screening assay was developed from the HEK-Blue TLR2 reporter cell line that is commercially available from Invivogen (San Diego, CA). The reporter cell line consists of HEK-293 embryonic kidney cells that have been engineered to express TLR2 and with an NF-kB promoter driving expression of Secreted Alkaline Phosphatase (SEAP). Upon engagement of TLR2, downstream signaling results in activation of NF-kB pathway activation and secretion of SEAR In the presence of the detection reagent in the tissue culture media, SEAP mediates a color change from clear to indigo that is readily assessed by measuring absorbance at 600 nm.
HEK-Blue TLR2 reporter cells are cultured according to manufacturer's specifications until a confluence of 70-90%, at which point the cells are trypsinized, counted, and plated into 96-well plates at approximately 40,000 cells per well. Cells are cultured overnight and the TLR2 assay is performed 16-24 hours post-plating into 96 well plates.
Compounds are diluted from stocks dissolved in DMSO and a 1% DMSO final concentration is maintained in all testing wells.
The assay consists of removing the cell culture media after cells have been cultured overnight and replacing the media with HEK-Blue Detection media with TLR2 agonists at indicated dilution schemes. The Detection media contains a chemical substrate that turns from clear to indigo when acted upon by SEAP. The HEK-Blue cells are then cultured overnight in Detection media with diluted compounds. After overnight culture with agonists, each well of the plate is assayed in a plate reader at 600 nanometer absorbance.
• (1) HEK-Blue TLR2 cells are diluted in complete DME culture medium and plated into 96-well plates at 40,000 cells per well and cultured overnight. • (2) After 16-24 hours in culture, the media is removed and replaced with 200 microliters per well of HEK-Blue Detection media. • (3) TLR2 agonists are diluted 100-fold from DMSO stocks into each well, yielding a final DMSO concentration of 1% in all wells. • (3) Treated cells are cultured overnight and the following day are assayed in plate reader for Absorbance at 600 nanometer.
Following assay measurements utilizing either HEK-Blue detection or cytokine release, all data is analyzed with the GraphPad Prism8 statistical package to determine EC50, binding and activity metrics for the TLR2 modulators.
Data is generated using protocol described in Example 44.
For orientation: EC50 means the concentration needed to bring the measured effect to its halfway point. High values mean a less potent agent, low ones a more potent agent. With `CCCCCCNC(=O)C[C@H](NC(=O)c1ccc(C(=O)N2C[C@@H](C(=O)N[C@H]3C[C@@H]3c3ccccc3)[C@H](C(=O)N[C@H]3C[C@@H]3c3ccccc3)C2)cc1)C(=O)NCCCCCC` [Compound 014], the EC50 is above 1000 nM. For `CCCCCCCNC(=O)C1CN(C(=O)c2ccc(C(=O)N3C[C@@H](C(=O)N[C@H]4C[C@@H]4c4ccccc4)[C@H](C(=O)N[C@H]4C[C@@H]4c4ccccc4)C3)cc2)CCN1C(=O)CCCCCCC` (some centres unmarked) [Compound 058], the EC50 lay within 51 to 350 nM. On the same count and under the same terms, the value for `CCCCCCCC(=O)N1CCN(C(=O)c2ccc(C(=O)N3C[C@@H](C(=O)N[C@H]4C[C@@H]4c4ccccc4)[C@H](C(=O)N[C@H]4C[C@@H]4c4ccccc4)C3)cc2)CC1C(=O)NCCCC` (mixture of isomers) [Compound 046, (3S,4S)-1-(4-(3-(butylcarbamoyl)-4-octanoylpiperazine-1-carbonyl)benzoyl)-N3,N4-bis((1S,2R)-2-phenylcyclopropyl)pyrrolidine-3,4-dicarboxamide] was 51 to 350 nM; that for `CCCCCCNC(=O)C1CN(C(=O)c2ccc(C(=O)N3C[C@@H](C(=O)N[C@H]4C[C@@H]4c4ccccc4)[C@H](C(=O)N[C@H]4C[C@@H]4c4ccccc4)C3)cc2)CCN1C(=O)CCCCC` (stereo partly drawn) [Compound 050, (3S,4S)-1-(4-(4-hexanoyl-3-(hexylcarbamoyl)piperazine-1-carbonyl)benzoyl)-N3,N4-bis((1S,2R)-2-phenylcyclopropyl)pyrrolidine-3,4-dicarboxamide] was 51 to 350 nM. Same read-out and setting: then `CCCCCCCCN1CCN(C(=O)c2ccc(C(=O)N3C[C@@H](C(=O)N[C@H]4C[C@@H]4c4ccccc4)[C@H](C(=O)N[C@H]4C[C@@H]4c4ccccc4)C3)cc2)C[C@@H]1C(=O)NCCCCCC` [Compound 037, (3S,4S)-1-(4-((R)-3-(hexylcarbamoyl)-4-octylpiperazine-1-carbonyl)benzoyl)-N3,N4-bis((1S,2R)-2-phenylcyclopropyl)pyrrolidine-3,4-dicarboxamide formate], with 51 to 350 nM.

Staying with this assay, now noted: HEK-Blue TLR2 reporter cells, agonist mode; average of all runs (Table 4).
Consider `CCCCCCCCN1C(=O)N(Cc2ccc(C(=O)N3C[C@@H](C(=O)N[C@H]4C[C@@H]4c4ccccc4)[C@H](C(=O)N[C@H]4C[C@@H]4c4ccccc4)C3)cc2)C[C@H]1C(=O)NCCCCCC` [Compound 167, (3S,4S)-1-(4-(((S)-4-(hexylcarbamoyl)-3-octyl-2-oxoimidazolidin-1-yl)methyl)benzoyl)-N3,N4-bis((1S,2R)-2-phenylcyclopropyl)pyrrolidine-3,4-dicarboxamide], for which the EC50 lay within 0.1 to 50 nM. Same read-out and setting: the value for `CCCCCCCCCCCCCCNC(=O)[C@@H]1CN(C(=O)c2cccc(C(=O)N3C[C@@H](C(=O)N[C@H]4C[C@@H]4c4ccccc4)[C@H](C(=O)N[C@H]4C[C@@H]4c4ccccc4)C3)c2)CCN1C(C)=O` [Compound 164, (3S,4S)-1-(3-((S)-4-acetyl-3-(tetradecylcarbamoyl)piperazine-1-carbonyl)benzoyl)-N3,N4-bis ((1S,2R)-2-phenylcyclopropyl) pyrrolidine-3,4-dicarboxamide] was above 1000 nM. Still for that read-out and setting: then `CCCCCCCCCCCCCCNC(=O)[C@@H]1CN(C(=O)c2ccc(C(=O)N3C[C@@H](C(=O)N[C@H]4C[C@@H]4c4ccccc4)[C@H](C(=O)N[C@H]4C[C@@H]4c4ccccc4)C3)cc2)C[C@H]1N(C)C` [Compound 091, (3S,4S)-1-(4-((3S,4R)-3-(dimethylamino)-4-(tetradecylcarbamoyl)pyrrolidine-1-carbonyl)benzoyl)-N3,N4-bis((1S,2R)-2-phenylcyclopropyl)pyrrolidine-3,4-dicarboxamide], with above 1000 nM; and `CCCCCCCCCC(=O)N[C@@H](CNc1nc2cc(C(=O)N3C[C@@H](C(=O)N[C@H]4C[C@@H]4c4ccccc4)[C@H](C(=O)N[C@H]4C[C@@H]4c4ccccc4)C3)ccc2o1)C(=O)NCCCCCC` [Compound 246, (3S,4S)-1-(2-(((S)-2-decanamido-3-(hexylamino)-3-oxopropyl)amino)benzo[d]oxazole-5-carbonyl)-N3,N4-bis((1S,2R)-2-phenylcyclopropyl)pyrrolidine-3,4-dicarboxamide], with above 1000 nM. Same read-out and setting: then `CCCCCCCCCCCCCCNC(=O)[C@@H]1CN(C(=O)c2ccc(C(=O)N3C[C@@H](C(=O)N[C@H]4C[C@@H]4c4ccccc4)[C@H](C(=O)N[C@H]4C[C@@H]4c4ccccc4)C3)cc2)CCO1` [Compound 151, (3S,4S)—N3,N4-bis((1S,2R)-2-phenylcyclopropyl)-1-(4-((S)-2-(tetradecylcarbamoyl)morpholine-4-carbonyl)benzoyl)pyrrolidine-3,4-dicarboxamide], with above 1000 nM; and `CCCCCCCCCCCCCCNC(=O)[C@@H]1CN(C(=O)c2ccc(C(=O)N3C[C@@H](C(=O)N[C@H]4C[C@@H]4c4ccccc4)[C@H](C(=O)N[C@H]4C[C@@H]4c4ccccc4)C3)cc2)CCN1C(=O)C(C)C` [Compound 250, (3S,4S)-1-(4-((S)-4-isobutyryl-3-(tetradecylcarbamoyl)piperazine-1-carbonyl)benzoyl)-N3,N4-bis((1S,2R)-2-phenylcyclopropyl)pyrrolidine-3,4-dicarboxamide], with above 1000 nM; and `CCCCCCC(=O)N[C@@H](CNC(=O)c1ccc(C(=O)N2C[C@@H](C(=O)N[C@H]3C[C@@H]3c3ccccc3)[C@H](C(=O)N[C@H]3C[C@@H]3c3ccccc3)C2)cc1)C(=O)N[C@H]1C[C@@H]1c1ccccc1` [Compound 143, (3S,4S)-1-(4-(((S)-2-heptanamido-3-oxo-3-(((1S,2R)-2-phenylcyclopropyl)amino)propyl)carbamoyl)benzoyl)-N3,N4-bis((1S,2R)-2-phenylcyclopropyl)pyrrolidine-3,4-dicarboxamide], with 51 to 350 nM. `CCCCCCC(=O)N[C@@H](CNC(=O)c1ccc(C(=O)N2C[C@@H](C(=O)N[C@H]3C[C@@H]3c3ccccc3)[C@H](C(=O)N[C@H]3C[C@@H]3c3ccccc3)C2)cc1)C(=O)NCCCC` [Compound 131, (3S,4S)-1-(4-(((S)-3-(butylamino)-2-heptanamido-3-oxopropyl)carbamoyl)benzoyl)-N3,N4-bis((1S,2R)-2-phenylcyclopropyl)pyrrolidine-3,4-dicarboxamide] returned a 50% effective concentration (EC50) of 351 to 1000 nM. In turn, `CCCCCCCCCCCCCCNC(=O)[C@@H]1CN(S(=O)(=O)c2cccc(C(=O)N3C[C@@H](C(=O)N[C@H]4C[C@@H]4c4ccccc4)[C@H](C(=O)N[C@H]4C[C@@H]4c4ccccc4)C3)c2)CCN1C(C)=O` [Compound 193, (3S,4S)-1-(3-(((S)-4-acetyl-3-(tetradecylcarbamoyl)piperazin-1-yl)sulfonyl)benzoyl)-N3,N4-bis((1S,2R)-2-phenylcyclopropyl)pyrrolidine-3,4-dicarboxamide] showed an EC50 of 51 to 350 nM.

In turn, `CCCCCCCCCCCCCCC(=O)N[C@H]1CCCN(C(=O)c2ccc(C(=O)N3C[C@@H](C(=O)N[C@H]4C[C@@H]4c4ccccc4)[C@H](C(=O)N[C@H]4C[C@@H]4c4ccccc4)C3)cc2)C1` [Compound 124, (3S,4S)-1-(4-((S)-3-pentadecanamidopiperidine-1-carbonyl)benzoyl)-N3,N4-bis((1S,2R)-2-phenylcyclopropyl)pyrrolidine-3,4-dicarboxamide] showed a concentration for a half-maximal effect (EC50) above 1000 nM. Compound `CCCCCCCCCC(=O)N[C@@H](CN1Cc2cc(C(=O)N3C[C@@H](C(=O)N[C@H]4C[C@@H]4c4ccccc4)[C@H](C(=O)N[C@H]4C[C@@H]4c4ccccc4)C3)ccc2C1=O)C(=O)NCCCCCC` [Compound 242, (3S,4S)-1-(2-((S)-2-decanamido-3-(hexylamino)-3-oxopropyl)-1-oxoisoindoline-5-carbonyl)-N3,N4-bis((1S,2R)-2-phenylcyclopropyl)pyrrolidine-3,4-dicarboxamide] had an EC50 of 51 to 350 nM. The same measure, in the same setting: then `CCCCCCCCCCCCCNC(=O)N[C@H]1CN(c2ncc(-c3ccc(C(=O)N4C[C@@H](C(=O)N[C@H]5C[C@@H]5c5ccccc5)[C@H](C(=O)N[C@H]5C[C@@H]5c5ccccc5)C4)cc3)o2)C[C@@H]1OC` [Compound 234, (3S,4S)-1-(4-(2-((3S,4S)-3-methoxy-4-(3-tridecylureido)pyrrolidin-1-yl)oxazol-5-yl)benzoyl)-N3,N4-bis((1S,2R)-2-phenylcyclopropyl)pyrrolidine-3,4-dicarboxamide], with above 1000 nM.
